Experimental data from patent publication US20240277684A1, “BLOCKADE OF CHEMOKINE (C-C MOTIF) RECEPTOR 2 DURING FLUID RESUSCITATION” (University of South Florida, priority 2022, published 2024).

How the values were obtained:
[1] = test system: hemorrhagic shock; test: Example 1 first series: 30 min hemorrhagic shock, fluid resuscitation until t=90 min; type: in vivo, rat; details: 5.5 μmol/kg Maraviroc at t=30 min, vs vehicle or 1.1 INCB3284
Procedure: In vivo animal experiments. All procedures were performed in accordance with the National Institutes of Health Guidelines for Use of Laboratory Animals and were approved by the University of South Florida Institutional Animal Care and Use Committeee (IS00008139). Male Sprague-Dawley rats (300-400 g, Envigo, Indianapolis, IN, USA). were anesthetized with 1.7% isoflurane via nose-cone inhalation with the SomnoSuite anesthesia system (Kent Scientific, Torrington, CT, USA). […] The left femoral artery was isolated and cannulated with a 24-gauge peripheral intravenous catheter to allow for blood withdrawal, hemodynamic monitoring, drug administration, and fluid resuscitation. Hemodynamics were continuously monitored with the SurgivetV6400 blood pressure monitor (Med-Electronics, Beltsville, MD, USA), and blood pressures and heart rate were recorded at 1-10 min intervals. All animals were observed over a 10 min period to ensure hemodynamic stability before start of the experiments. All experiments were performed randomized in alternating order. […] Physiol Res 2019; 68(4):675-679; Nassoiy S P, et al., Effects of the Kv7 voltage-activated potassium channel inhibitor linopirdine in rat models of haemorrhagic shock. Clin Exp Pharmacol Physiol 2018; Nassoiy S P, et al., Kv7 voltage-activated potassium channel inhibitors reduce fluid resuscitation requirements after hemorrhagic shock in rats. J Biomed Sci 2017; 24(1):8; Bach H Ht, et al., Proteasome inhibition prolongs survival during lethal hemorrhagic shock in rats. J Trauma Acute Care Surg 2013; 74(2):499-507; Bach H Ht, et al., Chemokine (C-X-C motif) receptor 4 and atypical chemokine receptor 3 regulate vascular alpha(1)-adrenergic receptor function. Mol Med 2014; 20:435-447), with slight modifications. In brief, rats were hemorrhaged to a mean arterial blood pressure (MAP) of less than or equal to 30 mmHg for a period of 30 minutes. At the end of the HS period (t=30 min), animals were injected with either vehicle (1 mL LR) or drug in 1 mL LR, followed by fluid resuscitation with 1 mL bolus injections of LR to maintain a systolic blood pressure (SBP) of 90 mmHg or a MAP of 60 mmHg. To avoid fluid overload, bolus injections of LR were limited to 1 mL/min. […] Animals were then resuscitated until t=90 min. At t=0, 15, 30, 60 and 90 min, blood samples were obtained, and plasma prepared. Samples were stored at -70° C. until further processing. At t=90 min, animals were euthanized (isoflurane inhalation, bilateral pneumothorax).

[2] = solubility; type: physicochemical
[3] = biological target: T1, CCR3 (Homo sapiens, UniProt P51677); details: read-out: IC50, CCR3 antagonist; cited from earlier work
T1 sequence (P51677 1-355): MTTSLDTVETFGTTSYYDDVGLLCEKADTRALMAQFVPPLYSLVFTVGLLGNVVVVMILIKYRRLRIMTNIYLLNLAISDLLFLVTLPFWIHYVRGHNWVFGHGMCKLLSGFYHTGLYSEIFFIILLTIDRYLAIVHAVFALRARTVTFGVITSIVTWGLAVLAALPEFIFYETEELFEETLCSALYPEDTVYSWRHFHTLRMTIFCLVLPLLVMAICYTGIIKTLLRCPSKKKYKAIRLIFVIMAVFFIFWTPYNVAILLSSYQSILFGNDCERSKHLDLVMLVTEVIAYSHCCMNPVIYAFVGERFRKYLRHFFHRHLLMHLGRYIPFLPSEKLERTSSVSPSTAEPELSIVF

[4] = test system: hemorrhagic shock; test: Example 2 Series 2: 60 min hemorrhagic shock, single dose, fluid resuscitation until t=300 min; type: in vivo, rat
Procedure: (§1) The hemorrhagic shock models were performed as described previously, with slight modifications (DeSantis A J, et al., The Chemokine (C-C Motif) Receptor 2 Antagonist INCB3284 Reduces Fluid Requirements and Protects From Hemodynamic Decompensation During Resuscitation From Hemorrhagic Shock. Crit Care Explor 2022;4(5):e0701; Bach H H, et al., Chemokine (C-X-C motif) receptor 4 and atypical chemokine receptor 3 regulate vascular alpha(1)-adrenergic receptor function. Mol Med 2014; 20:435-47; Nassoiy S P, et al., Effects of the Kv7 voltage activated potassium channel inhibitor linopirdine in rat models of hemorrhagic shock. Clin Exp Pharmacol Physiol 2018. doi: 10.1111/1440-1681.12958. PubMed PMID: 29702725; Bach H H, et al., Proteasome inhibition prolongs survival during lethal hemorrhagic shock in rats. J Trauma Acute Care Surg 2013; 74(2):499-507). In brief, anesthesia induction was performed with the animal and isoflurane-soaked gauze placed in a bell jar. After anesthesia induction, the animals were transferred to the operative field and anesthesia was maintained with 2.7% isoflurane administered via nose-cone inhalation with the SomnoSuite small animal anesthesia system (Kent Scientific Corporation, Torrington, CT, USA). […] Using a direct cut-down technique, the left femoral artery was isolated and cannulated with a 24-gauge peripheral intravenous catheter to allow for blood withdrawal, hemodynamic monitoring, drug administration, and fluid resuscitation. After catheter placement, isoflurane was decreased to 1.5%. Hemodynamics were continuously monitored with the Surgivet invasive blood pressure monitor (Med-Electronics, Beltsville, MD, USA). Blood pressures were recorded at 1-5 min intervals during the hemorrhage and resuscitation periods. Four subsequent series of experiments were performed. All experiments in each series were performed in alternating order. In all experiments animals were continuously monitored and remained under general anesthesia until euthanasia or death, as defined by asystole or loss of pulse pressure.
Series 2: Rats were hemorrhaged to a MAP of less than or equal to 30 mmHg for a period of 60 min, followed by fluid resuscitation until t=300 min as in Series 1. At the end of the hemorrhagic shock period (t=60 min), animals were injected with 1 mL of normal saline (NS) (n=6), 5 μmol/kg (n=6) INCB3284 in 1 mL NS or 1.1 μmol/kg SB 328437 (n=6) in 1 mL NS at t=60 min. At t=0 min, 60 min, 120 min, 180 min, 240 min and 300 min, blood samples (0.3 ml) were obtained and used for arterial blood gas analyses and measurements of routine laboratory parameters. At t=300 min, surviving animals were euthanized (5% isoflurane inhalation, bilateral pneumothorax).
Arterial blood gases and routine laboratory parameters. Arterial blood gases, electrolytes, creatinine, lactate, hematocrit and hemoglobin were analyzed using the Element point of care veterinary blood gas, electrolyte and critical care analyzer (Cuattro Veterinary USA, Loveland, CO, USA).

[5] = test system: hemorrhagic shock; test: Example 2 Series 1: 30 min hemorrhagic shock, fluid resuscitation until t=90 min; type: in vivo, rat
Procedure: as §1
Series 1: To assess the effects of SB328437 treatment after hemorrhagic shock and fluid resuscitation, and to be able to compare findings with the previous study on the effects of CCR2 and CCR5 inhibition, rats were hemorrhaged to a mean arterial blood pressure (MAP) of less than or equal to 30 mmHg for a period of 30 minutes. At the end of the hemorrhagic shock period (t=30 min), animals were injected with either vehicle (1 mL lactated Ringer's solution (LR), n=5), 0.25 μmol/kg SB328437 (n=3) or 1.1 μmol/kg SB328437 (n=3) in 1 mL LR, followed by fluid resuscitation with 1 mL bolus injections of LR to maintain a systolic blood pressure of 90 mm Hg or an MAP of 60 mm Hg until t=90 min, as described. To avoid fluid overload, bolus injections of LR were limited to 1 mL/min. At t=90 min, surviving animals were euthanized (5% isoflurane inhalation, bilateral pneumothorax).

[6] = test system: severe hemorrhagic shock; test: Example 2 Series 4: lethal hemorrhage without fluid resuscitation; type: in vivo, rat; details: 5 μmol/kg INCB3284 or 1 μmol/kg SB328437 after 40% TBV hemorrhage
Procedure: as §1
Series 4: The purpose of these experiments was to determine whether treatment with the chemokine receptor antagonists increases shock tolerance, blood pressure and survival time without additional fluid resuscitation. As such, death is an intentional endpoint. Earlier endpoints are unable to answer these questions and alternatives are not available. Rats were hemorrhaged 40% total blood volume (TBV) within 10 min. At t=15 min, animals were injected with vehicle (1 mL NS, n=3), 5 μmol/kg INCB3284 in 1 mL NS (n=5) or […] SB 328437 in 1 mL NS (n=5). Animals were then hemorrhaged 2% TBV every 5 minutes until death.

[7] = biological target: T1, CCR3; details: cited from earlier work
[8] = biological target: CCR2 (Homo sapiens, UniProt P41597); details: read-out: Kd, binding affinity of CCL2 for CCR2; cited from earlier work
CCR2, sequence (P41597 whole entry, species assumed): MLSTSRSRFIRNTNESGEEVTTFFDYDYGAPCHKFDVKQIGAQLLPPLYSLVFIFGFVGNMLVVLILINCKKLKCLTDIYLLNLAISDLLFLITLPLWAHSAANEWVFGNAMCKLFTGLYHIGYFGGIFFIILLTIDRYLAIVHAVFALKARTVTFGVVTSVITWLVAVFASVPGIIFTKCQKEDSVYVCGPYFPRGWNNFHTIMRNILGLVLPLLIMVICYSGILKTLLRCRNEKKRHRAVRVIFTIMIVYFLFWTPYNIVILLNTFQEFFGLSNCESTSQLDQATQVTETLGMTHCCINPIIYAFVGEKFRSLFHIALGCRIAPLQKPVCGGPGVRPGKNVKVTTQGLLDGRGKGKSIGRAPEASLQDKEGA

[9] = test system: CCR5; details: cited from earlier work

Maraviroc
effect on fluid requirements [1]: did not affect fluid requirements

COC(=O)[C@H](Cc1ccc([N+](=O)[O-])cc1)NC(=O)c1cccc2ccccc12 [SB328437]
solubility [2]: limited
IC50 [3]: 4.5 nM
median survival time ([4]; 1.1 μmol/kg SB328437 or 5 μmol/kg INCB3284 at t=60 min): 290 min
animals that survived the resuscitation period ([4]; 1.1 μmol/kg SB328437 or 5 μmol/kg INCB3284 at t=60 min, until t=300 min, n=6): 3 of 6
fluid requirements ([4]; 1.1 μmol/kg at t=60 min): could not be significantly reduced
MAP during fluid resuscitation ([4]; 1.1 μmol/kg at t=60 min, between t=140-200 min): lower
Fluid requirements to achieve the MAP target vs vehicle ([5]; 0.25 μmol/kg at t=30 min): comparable
MAP vs vehicle treated animals ([5]; 0.25 μmol/kg at t=30 min): indistinguishable
fluid requirements (mean±SE) ([5]; 0.25 μmol/kg at t=30 min, until t=90 min): 53 ± 7 mL/kg
MAP at the end of the resuscitation period (t=80-90 min) ([5]; 1.1 μmol/kg at t=30 min): higher
reduction of fluid requirements ([5]; 1.1 μmol/kg at t=30 min, until t=90 min, vs vehicle): 63±4%
fluid requirements (mean±SE) ([5]; 1.1 μmol/kg at t=30 min, until t=90 min, p<0.05 vs. vehicle): 19.5 ± 2 mL/kg
MAP during subsequent 2% TBV hemorrhages in 5 min intervals ([6]; no fluid resuscitation): indistinguishable among groups
median survival time ([6]; not significantly different between groups): 64 min

CCL2: principal endogenous agonist of chemokine (C-C motif) receptor 2 (CCR2)
binding affinity of CCL2 for CCR3 lower than for CCR2 [7]: more than 100 fold
Kd [8]: ~0.5 nM
binding affinity of CCL2 for CCR5 lower than for CCR2 [9]: more than 100 fold
